Data set [1] deals with alanine aminotransferase (ALT). Description: [U-13C] BCAA labeling and metabolite pool sizes after ALT inhibition in BRAF/p53 zebrafish. The format is in vivo. Particulars: 600 µM in water, 10 days, vs vehicle. How it is done:
(§1) For all isotope tracing experiments, zebrafish were fasted for 24 h to empty the digestive tract prior to labeling. To determine the [U-^13C] glucose concentration for isotopic steady-state labeling, concentrations between 5 - 20 mM were tested. […] Similarly, concentrations between 1 - 10 mM of [U-^13C] glutamine were tested for steady-state labeling. […] For ^15N-BCAA labeling experiments, 2 mM each [^15N] leucine, [^15N] isoleucine, and [^15N] valine were concurrently supplemented to facility water. For ^13C-BCAA labeling experiments, 4 mM each of [U-^13C] leucine, [U-^13C] isoleucine, and [U-^13C] valine were concurrently supplemented to facility water. During steady-state labeling experiments, zebrafish were allowed to swim freely in facility water containing the corresponding stable isotopes at the aforementioned concentrations, in addition to 2% penicillin/streptomycin (Life Technologies). For isotope tracing via intraperitoneal injection, zebrafish were injected using a previously described method. Briefly, anesthetized fish were quickly dried and weighed. Zebrafish were then placed into the trough of a wet precut sponge, with the abdomen facing up and gills secured in the trough. A 35G beveled needle and NanoFil 10 µL syringe (World Precision Instruments) was carefully inserted midline near the pelvic girdle, and a [U-^13C] glucose treatment solution (0.5 mg/g) was slowly dispensed. After injection, fish were placed in 28° C. facility water and monitored for recovery from anesthesia (typically 5-10 seconds). Throughout the experiment, each fish was kept in an individual tank to allow for tracking.
To extract metabolites from serum, samples were diluted 1:15 with methanol:acetonitrile:water (2:2:1) at -20° C., vortexed for 10 s, and incubated at -20° C. for 1 h. Following incubation, metabolite extracts were centrifuged at 20,000 g and 4° C. for 10 min, and the supernatant was transferred into an LC/MS vial for same-day analysis. To extract metabolites from zebrafish tissues, frozen samples were ground in 1.5 mL microcentrifuge tubes with a disposable pellet pestle (Fisherbrand). The pellet pestle was placed in liquid nitrogen prior to sample grinding, and the microcentrifuge tube (containing tissue) was submerged in liquid nitrogen for the entirety of tissue grinding. We note that microcentrifuge tubes were labeled and weighed prior to tissue harvest and then weighed again following tissue grinding. The powderized tissue was mixed with -20° C. methanol:acetonitrile:water (2:2:1) and subjected to two cycles of freezing in liquid nitrogen (1 min), thawing in 25° C. water (10 s), sonication (5 min), and vortexing (30 s). Samples were then incubated at -20° C. for 1 h. For every 1 mg of tissue wet weight, 40 µL of extraction solvent was added. Following protein precipitation, tissue extracts were centrifuged at 20,000 g and 4° C. for 10 min, and the supernatant was transferred into an LC/MS vial for same-day analysis.
Ultra-high performance LC (UHPLC)/MS was performed with a Thermo Scientific Vanquish Horizon UHPLC system interfaced with a Thermo Scientific Orbitrap ID-X Tribrid Mass Spectrometer (Waltham, MA). Hydrophilic interaction liquid chromatography (HILIC) was conducted with a SeQuant ZIC-pHILIC guard column (20 mm × 2.1 mm, 5 µm) connected to a SeQuant ZIC-pHILIC column (100 mm × 2.1 mm, 5 µm; EMD Millipore, Burlington, MA). Chromatographic solvents were adapted from a previously described work. […]

Data set [2] has as its system melanoma tumors of BRAF/p53 zebrafish. Description: Tumor size by digital calipers in melanoma-bearing BRAF/p53 zebrafish. The format is in vivo.
Method: Wild-type (WT) fish were inbred AB strain (sjA). p53-/- and transgenic mitfa-BRAFV600E¬ lines were crossed to produce melanoma-bearing fish (referred to as BRAF/p53), using a previously described method. All fish were reared according to standard laboratory procedures. Fish were kept in an indoor environment at a temperature of 28 ± 1° C. with a 14:10-h light:dark circadian cycle. Both female and male fish were used for experiments at random. Experiments were conducted with age-matched animals (i.e., within 2 weeks of age). To assay tumor growth, melanoma dimensions were measured by using digital calipers. Tumor size was approximated as the volume of a half ellipsoid, ⅔ πabc, where a, b, and c represent the radii of tumor length, width, and height respectively.
Vemurafenib was dissolved in DMSO, and vemurafenib solution or DMSO alone (vehicle) was delivered via intraperitoneal injection following a previously described protocol detailed above. Throughout the experiment, each fish was kept in an individual tank to allow for tracking. […]
The subject of data set [3] is tumor-liver alanine cycle. Briefly: [U-13C] glucose isotope tracing / LC/MS metabolomics in drug-treated BRAF/p53 zebrafish (tumor-liver alanine cycling). The format is in vivo.
Method: For all isotope tracing experiments, zebrafish were fasted for 24 h to empty the digestive tract prior to labeling. […] During steady-state labeling experiments, zebrafish were allowed to swim freely in facility water containing the corresponding stable isotopes at the aforementioned concentrations, in addition to 2% penicillin/streptomycin (Life Technologies). For isotope tracing via intraperitoneal injection, zebrafish were injected using a previously described method. Briefly, anesthetized fish were quickly dried and weighed. Zebrafish were then placed into the trough of a wet precut sponge, with the abdomen facing up and gills secured in the trough. A 35G beveled needle and NanoFil 10 µL syringe (World Precision Instruments) was carefully inserted midline near the pelvic girdle, and a [U-^13C] glucose treatment solution (0.5 mg/g) was slowly dispensed. After injection, fish were placed in 28° C. facility water and monitored for recovery from anesthesia (typically 5-10 seconds). Throughout the experiment, each fish was kept in an individual tank to allow for tracking.
To extract metabolites from serum, samples were diluted 1:15 with methanol:acetonitrile:water (2:2:1) at -20° C., vortexed for 10 s, and incubated at -20° C. for 1 h. Following incubation, metabolite extracts were centrifuged at 20,000 g and 4° C. for 10 min, and the supernatant was transferred into an LC/MS vial for same-day analysis. To extract metabolites from zebrafish tissues, frozen samples were ground in 1.5 mL microcentrifuge tubes with a disposable pellet pestle (Fisherbrand). The pellet pestle was placed in liquid nitrogen prior to sample grinding, and the microcentrifuge tube (containing tissue) was submerged in liquid nitrogen for the entirety of tissue grinding. […] The powderized tissue was mixed with -20° C. methanol:acetonitrile:water (2:2:1) and subjected to two cycles of freezing in liquid nitrogen (1 min), thawing in 25° C. water (10 s), sonication (5 min), and vortexing (30 s). Samples were then incubated at -20° C. for 1 h. […]
Data set [4] deals with alanine cycling in WT zebrafish. Description: [U-13C] glucose isotope tracing in vemurafenib-treated WT zebrafish. The format is in vivo. The following applies: 100 mg/kg/day, 4 consecutive days, vs vehicle. How it is done: as §1, with “A 35G beveled needle and NanoFil 10 µL syringe (World Precision Instruments) was carefully inserted midline near the pelvic girdle, and a [U-^13C] glucose treatment solution (0.5 mg/g) was slowly dispensed.” left out, “Throughout the experiment, each fish was kept in an individual tank to allow for tracking.” left out

The conditions of data set [5]: humans, mice, and zebrafish; cited from earlier work.
[6] abbreviates: 50 µM in tank water, 6 days, vs DMSO.

Molecules are shown by their SMILES. Entries after “also recorded” stand apart in the source; their conditions may differ.

As for `N[C@@H](CCl)C(=O)O` [β-chloroalanine, β-chloro-L-alanine], in data set [1], the “BCAAs in serum (pool size)” value is recorded as “accumulation”; the “BCAAs in tumor (pool size)” value is “accumulation”; the “contribution that [U-13C] BCAAs made to the TCA cycle in tumors” value was “significantly reduced”; the “levels of alanine in tumor, serum, and liver” value was “decreased”. Moreover, the “levels of circulating glucose” value in data set [1] was “decreased”. In addition, the “reduction in tumor size” value in data set [2] (β-chloroalanine in water, 10 days) is 50%.
On to `CCN(c1nc(N)c(C(=O)N=C(N)N)nc1Cl)C(C)C` [EIPA, 5-(N-ethyl-N-isopropyl)amiloride], for which, in data set [3] (setting [6]), the “alanine labeling in the tumor” value is listed as “did not affect”; the “hepatic gluconeogenesis (M3 labeling of glucose in the liver and serum)” value is “did not affect”.
Turning to `CCCS(=O)(=O)Nc1ccc(F)c(C(=O)c2c[nH]c3ncc(-c4ccc(Cl)cc4)cc23)c1F` [vemurafenib], the “13C-labeling in metabolites from the circulation, liver, or muscle” value in data set [4] is “No differences; also recorded: does not lead to off-target metabolic effects”. Besides, in data set [5], the toxicity and tolerability entry is “minimal toxicity and high tolerability”. The “reduction of M3 labeling of alanine in the tumor” value in data set [3] (100 mg/kg/day i.p., 4 days, vs vehicle, 10 mM [U-13C] glucose 24 h) is ~ 2 fold. The “tumors reduced in size” value in data set [2] (100 mg/kg/day i.p., after 10 days) was above 95%.

The values above are taken from patent US20230321054A1, “COMPOSITIONS AND METHODS FOR CANCER AND TUMOR TREATMENT” (Washington University, priority 2022, published 2023).
